Two compounds from article PMC10139035, “Carborane-Containing Hydroxamate MMP Ligands for the Treatment of Tumors Using Boron Neutron Capture Therapy (BNCT): Efficacy without Tumor Cell Entry” (International Journal of Molecular Sciences, 2023) can be followed below.

SMILES strings stand for the structures.

Data set [1] has as its system U87 delta EGFR glioma cells. Put plainly: In vitro BNCT survival study, colony formation assay. It counts as cell-based. The note with it: for Survival rate: 20 ppm of 10B in BPA; for Thermal neutron fluence yielding the D37 value: BPA 20 ppm 10B. As for the experimental part:
SCC VII tumor cells were incubated and stabilized in a logarithmic subconfluent growth phase at 36 °C in a 5% carbon dioxide atmosphere in a 10 cm diameter tissue culture dishes (100 mm tissue culture dishes; Corning Glass Works, Corning, NY, USA) containing Eagle’s MEM containing 10% heat-inactivated fetal bovine serum and 2 mM L-glutamine. The U87 delta EGFR glioma cell line, kindly provided by Dr. H. Michiue (Okayama University, Okayama, Japan), which stably expressed the constitutively active EGFRvIII, was used in the colony formation assay. The cells were maintained in Dulbecco’s modified Eagle’s medium (DMEM; FUJIFILM Wako Pure Chemical Corporation, Richmond, VA, USA with 10% fetal bovine serum (FBS), penicillin, and streptomycin at 37 °C in a humidified atmosphere containing 5% CO2. The stock solutions of B1 and B2 were obtained by dissolving 6 mg of them in 1 ml DMSO, respectively. For SCC VII cells, after adding 100 μL of a boron solution, the cells were incubated for boron loading into tumor cells for 5 h. […] The ^10B (0.143 ppm ^10B for 1 (B1) and 0.101 ppm for 2 (B2) in the medium was reconfirmed by PGS (prompt γ spectroscopy) in the SCC VII colony forming assay. After boron loading, the cells were trypsinized and washed three times by PBS, and 5 × 10^3 cells/mL MEM (FCS+) were irradiated with thermal neutrons in column-shaped Teflon tubes (1 × 3 cm). […] The irradiation times were 0, 15, 30 and 45 min. The thermal neutrons flux was 1.8 × 10^9 cm^−2·s^−1. The thermal neutron fluence was determined by averaging two gold foils symmetrically attached to the surface of the Teflon tube along the direction of the incidence of the thermal neutrons. The neutron absorbed dose (Gy) was calculated using the flux-to-dose conversion factor [61]. The chemical composition of the tumors was assumed to be 10.7% hydrogen, 12.1% carbon, 2% nitrogen, 71.4% oxygen, and 3.8% others. The γ-ray dose rate, including secondary γ-rays, was 1.0 × 10^−2 Gy·min^−1, according to a thermoluminescence dosimeter attached to the surface of a Teflon tube containing 1 mL MEM. After thermal neutron exposure, 300 or 900 cells were placed in three Corning 60 mm tissue culture dishes containing 6 mL MEM to examine colony formation. Ten days later, the colonies were fixed with 70% ethanol and stained with 5% Giemsa solution for quantitative visualization by the naked eye.

Data set [2] concerns SCC VII tumor cells. The description is as above. It counts as cell-based. As for the experimental part:
SCC VII tumor cells were incubated and stabilized in a logarithmic subconfluent growth phase at 36 °C in a 5% carbon dioxide atmosphere in a 10 cm diameter tissue culture dishes (100 mm tissue culture dishes; Corning Glass Works, Corning, NY, USA) containing Eagle’s MEM containing 10% heat-inactivated fetal bovine serum and 2 mM L-glutamine. The U87 delta EGFR glioma cell line, kindly provided by Dr. H. Michiue (Okayama University, Okayama, Japan), which stably expressed the constitutively active EGFRvIII, was used in the colony formation assay. […] The thermal neutron fluence was determined by averaging two gold foils symmetrically attached to the surface of the Teflon tube along the direction of the incidence of the thermal neutrons. The neutron absorbed dose (Gy) was calculated using the flux-to-dose conversion factor [61]. […] Ten days later, the colonies were fixed with 70% ethanol and stained with 5% Giemsa solution for quantitative visualization by the naked eye.

Data set [3] relates to SCC VII tumor cells. Put plainly: Cytotoxicity: IC50, growth inhibition after 3 days of continuous exposure. It counts as cell-based. The note with it: 3 days continuous exposure, read-out: IC50 (cell toxicity). As for the experimental part:
Suspensions of 105 SCC VII cells/200 μL MEM containing 10% FCS (fetal calf serum) were incubated for 3 days in 96-well microplate with various concentrations of 1 and 2 (B1 and B2). After 3 days of exposure, the cell were washed with PBS and fixed with 70% ethanol. The SCC VII cells were stained with 5% Giemsa solution for 15 min. After removing the solution, the cells were dried in air and Giemsa stained cells were uniformized by the addition of 100 μL of alcohol. The optical absorbance at 595 nm was measured by optical densitometer.

In the next data set the target is T1, MMP-2 (Homo sapiens, UniProt P08253).
T1 sequence (P08253 110-660): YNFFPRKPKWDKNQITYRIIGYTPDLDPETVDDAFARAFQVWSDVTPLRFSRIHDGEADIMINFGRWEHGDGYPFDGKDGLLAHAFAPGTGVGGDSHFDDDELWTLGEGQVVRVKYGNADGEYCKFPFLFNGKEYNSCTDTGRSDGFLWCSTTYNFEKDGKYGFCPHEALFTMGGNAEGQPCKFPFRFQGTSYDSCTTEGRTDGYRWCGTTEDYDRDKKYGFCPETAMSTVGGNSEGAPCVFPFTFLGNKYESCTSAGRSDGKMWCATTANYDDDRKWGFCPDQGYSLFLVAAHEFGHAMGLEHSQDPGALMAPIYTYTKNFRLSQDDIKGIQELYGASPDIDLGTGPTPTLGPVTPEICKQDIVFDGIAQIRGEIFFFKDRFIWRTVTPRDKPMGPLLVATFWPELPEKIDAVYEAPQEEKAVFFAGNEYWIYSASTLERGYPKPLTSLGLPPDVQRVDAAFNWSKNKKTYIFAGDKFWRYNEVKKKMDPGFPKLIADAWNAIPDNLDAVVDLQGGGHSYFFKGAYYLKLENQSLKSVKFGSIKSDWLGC
Put plainly: MMP-2 fluorometric inhibitor screening kit assay. The note with it: read-out: IC50 MMP-2; triplicate, S.D.

The next data set addresses MMP-9 (Homo sapiens, UniProt P14780). Put plainly: MMP-9 fluorometric inhibitor screening kit assay. The note with it: read-out: IC50 MMP-9; triplicate, S.D.

Chain of MMP-9 (P14780 94-707): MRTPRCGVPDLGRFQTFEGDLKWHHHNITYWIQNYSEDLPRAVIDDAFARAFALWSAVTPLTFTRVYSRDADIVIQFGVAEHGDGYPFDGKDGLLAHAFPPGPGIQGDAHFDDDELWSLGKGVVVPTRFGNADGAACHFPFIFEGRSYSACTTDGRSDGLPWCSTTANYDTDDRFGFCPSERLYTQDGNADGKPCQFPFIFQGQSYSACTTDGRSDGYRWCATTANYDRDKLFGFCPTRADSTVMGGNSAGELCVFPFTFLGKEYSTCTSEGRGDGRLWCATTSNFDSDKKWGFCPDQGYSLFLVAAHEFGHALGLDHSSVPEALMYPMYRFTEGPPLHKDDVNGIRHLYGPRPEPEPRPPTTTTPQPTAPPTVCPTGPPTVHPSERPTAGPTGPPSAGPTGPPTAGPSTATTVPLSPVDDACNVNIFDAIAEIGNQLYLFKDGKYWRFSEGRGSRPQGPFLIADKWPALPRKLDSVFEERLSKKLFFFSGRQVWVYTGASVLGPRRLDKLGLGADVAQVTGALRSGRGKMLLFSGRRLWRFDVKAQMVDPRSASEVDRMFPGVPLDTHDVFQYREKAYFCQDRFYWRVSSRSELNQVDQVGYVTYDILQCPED
Protocol for MMP-2: (§1) MMP-2, MMP-9, and MMP-13 were assayed for inhibition using the respective abcam: ab139447, ab139449, and ab139451 Inhibitor Screening Kits. The supplied kits were adaptable to a microplate reader protocol designed for observing a fluorometric change associated with the cleavage of substrate analog at 37 °C. Briefly, each assay or control included a combined volume of 100 µL. […] The enzymes were then diluted in the assay buffer and 20 µL of each was added to give an assay concentrations of 0.042 nM (MMP-2), 1.9 nM (MMP-9), and 1.86 nM (MMP-13). […] The reaction was excited at 328 nm and emission detected at 420 nm. Fluorescence was measured every 60 s for a total of 960 s.
(§2) For each assay, data were truncated at 1000 s and offsets were applied to bring the initial fluorescence of each assay to zero. Replicate data for assays of individual inhibitor concentrations were plotted in KaleidaGraph (Synergy Software) for comparison and obvious outliers were culled from the analysis. The remaining data were averaged to yield one trace for each inhibitor concentration. The average data were combined into a dataset that included all assayed inhibitor concentrations for each MMP paralog. […]
(§3) The error was calculated by propagating the error for ratios of rate constants derived from fitting.
Protocol for MMP-9: as §1, §2, §3

`N[C@@H](Cc1ccc(B(O)O)cc1)C(=O)O` [BPA, L-boronophenylalanine, reference compound]: the Survival rate in data set [1] (thermal neutron fluence 2.7 × 10^12 cm^−2) worked out at 6.2 ± 1.4%; in data set [1] (thermal neutron fluence […] 10^12 cm^−2), 24.2 ± 7.7%. Also, the “Thermal neutron fluence yielding the D37 value” in data set [1] (U87 MG delta EGFR, 4 0.48 ppm 10B (Figure 8)) is 1.2 × 10^12; in data set [1] (U87 delta EGFR, 2 (B2) 0.7 ppm 10B (Figure 7)) it was 1.0 × 10^12; in the data set with SCC VII tumor cells [2] (SCC VII, BPA 20 ppm 10B, 4 0.48 ppm 10B (Figure 9)), 6.0 × 10^11. Besides, the “D37 absorbed dose (dose used to inhibit 63% colony formation)” value in the data set with SCC VII tumor cells [2] (SCC VII after in vitro BNCT, pre-incubation 0.143 ppm 10B (1), 0.101 ppm 10B (2)) stood at 0.82 Gy. Moreover, in the data set on SCC VII tumor cells [3], the half-maximal inhibitory concentration (IC50) was determined as 25500 µM.

With `COc1ccc(S(=O)(=O)N(CC(=O)NO)CC(C)C)cc1` [NNGH, N-isobutyl-N-(4-methoxyphenylsulfonyl)glycyl hydroxamic acid, reference compound], the IC50 at MMP-2 was found to be 0.0085 ± 0.0011 µM; at MMP-9, 0.0028 ± 1.4e-05 µM.
